Experimental data: US11267811B2, “Small molecule inhibitors of galectin-3” (BRISTOL-MYERS SQUIBB COMPANY, priority 2017, dated 2022)

Target: His-tagged recombinant human Gal-3 (hGal-3) (Homo sapiens (Human), UniProt P17931)
Assay: Gal-3 HTRF assay (His-tagged hGal-3 binding to B-ASF);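 also: compounds preincubated 30 min with hGal-3, then 1 h with B-ASF, detection via terbium anti-His antibody and streptavidin d2. Control with B-ASF counts as full signal, omitting B-ASF as background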
Conditions: HTRF, hGal-3 15 nM, B-ASF 15 nM; read-out: hGal-3 IC50

Chain of His-tagged recombinant human Gal-3 (hGal-3) (P17931 whole entry): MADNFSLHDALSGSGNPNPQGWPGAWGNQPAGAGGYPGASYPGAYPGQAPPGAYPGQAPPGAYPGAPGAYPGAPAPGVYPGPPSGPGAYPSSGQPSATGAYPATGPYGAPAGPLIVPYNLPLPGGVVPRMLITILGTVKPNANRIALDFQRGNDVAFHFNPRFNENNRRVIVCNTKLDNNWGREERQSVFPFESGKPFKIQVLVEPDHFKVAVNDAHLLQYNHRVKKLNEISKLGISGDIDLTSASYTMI

IC50	Compound
708 nM	OC[C@H]1O[C@@H](c2ncnn2-c2ccccc2)[C@H](O)[C@@H](n2cc(-c3cc(F)c(F)c(F)c3)nn2)[C@H]1O [Example 20]
79 nM	OC[C@H]1O[C@@H](c2ncnn2-c2ccc(Cl)c(Cl)c2)[C@H](O)[C@@H](n2cc(-c3cc(F)c(F)c(F)c3)nn2)[C@H]1O [Example 21]
1110 nM	OC[C@H]1O[C@@H](c2ncnn2Cc2cccc(Cl)c2)[C@H](O)[C@@H](n2cc(-c3cc(F)c(F)c(F)c3)nn2)[C@H]1O [Example 22]
150 nM	COc1cccc(-n2ncnc2[C@@H]2O[C@H](CO)[C@H](O)[C@H](n3cc(-c4cc(F)c(F)c(F)c4)nn3)[C@H]2O)c1 [Example 23]
480 nM	OC[C@H]1O[C@@H](c2ncnn2-c2ccccc2Cl)[C@H](O)[C@@H](n2cc(-c3cc(F)c(F)c(F)c3)nn2)[C@H]1O [Example 24]
560 nM	OC[C@H]1O[C@@H](c2ncnn2-c2ccc(C(F)(F)F)cc2)[C@H](O)[C@@H](n2cc(-c3cc(F)c(F)c(F)c3)nn2)[C@H]1O [Example 25]
230 nM	Cc1cccc(-n2ncnc2[C@@H]2O[C@H](CO)[C@H](O)[C@H](n3cc(-c4cc(F)c(F)c(F)c4)nn3)[C@H]2O)c1 [Example 26]
1470 nM	OC[C@H]1O[C@@H](c2ncnn2Cc2ccccc2)[C@H](O)[C@@H](n2cc(-c3cc(F)c(F)c(F)c3)nn2)[C@H]1O [Example 28]
1560 nM	OC[C@H]1O[C@@H](c2ncnn2-c2c(F)cccc2F)[C@H](O)[C@@H](n2cc(-c3cc(F)c(F)c(F)c3)nn2)[C@H]1O [Example 29]
1040 nM	O=C(O)c1cccc(-n2ncnc2[C@@H]2O[C@H](CO)[C@H](O)[C@H](n3cc(-c4cc(F)c(F)c(F)c4)nn3)[C@H]2O)c1 [Example 31]
590 nM	O=C(O)c1ccc(-n2ncnc2[C@@H]2O[C@H](CO)[C@H](O)[C@H](n3cc(-c4cc(F)c(F)c(F)c4)nn3)[C@H]2O)cc1 [Example 32]
790 nM	O=C(O)c1ccccc1-n1ncnc1[C@@H]1O[C@H](CO)[C@H](O)[C@H](n2cc(-c3cc(F)c(F)c(F)c3)nn2)[C@H]1O [Example 33]
700 nM	O=[N+]([O-])c1cccc(-n2ncnc2[C@@H]2O[C@H](CO)[C@H](O)[C@H](n3cc(-c4cc(F)c(F)c(F)c4)nn3)[C@H]2O)c1 [Example 35]
220 nM	OC[C@H]1O[C@@H](c2ncnn2-c2cccc(C(F)(F)F)c2)[C@H](O)[C@@H](n2cc(-c3cc(F)c(F)c(F)c3)nn2)[C@H]1O [Example 36]
210 nM	OC[C@H]1O[C@@H](c2ncnn2-c2cc(F)cc(F)c2)[C@H](O)[C@@H](n2cc(-c3cc(F)c(F)c(F)c3)nn2)[C@H]1O [Example 37]
390 nM	OC[C@H]1O[C@@H](c2ncnn2-c2cccc(F)c2)[C@H](O)[C@@H](n2cc(-c3cc(F)c(F)c(F)c3)nn2)[C@H]1O [Example 38]
550 nM	Cc1ccc(-n2ncnc2[C@@H]2O[C@H](CO)[C@H](O)[C@H](n3cc(-c4cc(F)c(F)c(F)c4)nn3)[C@H]2O)cc1 [Example 39]
1020 nM	OC[C@H]1O[C@@H](c2ncnn2-c2ccccc2F)[C@H](O)[C@@H](n2cc(-c3cc(F)c(F)c(F)c3)nn2)[C@H]1O [Example 40]
110 nM	OC[C@H]1O[C@@H](c2ncnn2-c2cc(Cl)cc(Cl)c2)[C@H](O)[C@@H](n2cc(-c3cc(F)c(F)c(F)c3)nn2)[C@H]1O [Example 41]
460 nM	OC[C@H]1O[C@@H](c2ncnn2-c2ccncc2)[C@H](O)[C@@H](n2cc(-c3cc(F)c(F)c(F)c3)nn2)[C@H]1O [Example 42]
610 nM	OC[C@H]1O[C@@H](c2ncnn2-c2ccc(Cl)cc2)[C@H](O)[C@@H](n2cc(-c3cc(F)c(F)c(F)c3)nn2)[C@H]1O [Example 43]
4460 nM	Cn1ncnc1[C@@H]1O[C@H](CO)[C@H](O)[C@H](n2cc(-c3cc(F)c(F)c(F)c3)nn2)[C@H]1O [Example 44]
60 nM	Cc1nc2ccc(-n3ncnc3[C@@H]3O[C@H](CO)[C@H](O)[C@H](n4cc(-c5cc(F)c(F)c(F)c5)nn4)[C@H]3O)cc2s1 [Example 45]
40 nM	OC[C@H]1O[C@@H](c2ncnn2-c2ccc3ncsc3c2)[C@H](O)[C@@H](n2cc(-c3cc(F)c(F)c(F)c3)nn2)[C@H]1O [Example 46]
80 nM	OC[C@H]1O[C@@H](c2ncnn2-c2cc(Cl)ccc2Cl)[C@H](O)[C@@H](n2cc(-c3cc(F)c(F)c(F)c3)nn2)[C@H]1O [Example 47]
110 nM	Cn1cnc2ccc(-n3ncnc3[C@@H]3O[C@H](CO)[C@H](O)[C@H](n4cc(-c5cc(F)c(F)c(F)c5)nn4)[C@H]3O)cc21 [Example 48]

IC50	Compound
50 nM	Cc1nc2cc(C)c(-n3ncnc3[C@@H]3O[C@H](CO)[C@H](O)[C@H](n4cc(-c5cc(F)c(F)c(F)c5)nn4)[C@H]3O)cc2s1 [Example 49]
120 nM	OC[C@H]1O[C@@H](c2ncnn2-c2ccc3nc(N4CCOCC4)sc3c2)[C@H](O)[C@@H](n2cc(-c3cc(F)c(F)c(F)c3)nn2)[C@H]1O [Example 50]
70 nM	Cc1nc2cc(Cl)c(-n3ncnc3[C@@H]3O[C@H](CO)[C@H](O)[C@H](n4cc(-c5cc(F)c(F)c(F)c5)nn4)[C@H]3O)cc2s1 [Example 51]
300 nM	Cc1ncc(-c2cccc(-n3ncnc3[C@@H]3O[C@H](CO)[C@H](O)[C@H](n4cc(-c5cc(F)c(F)c(F)c5)nn4)[C@H]3O)c2)s1 [Example 52]
23 nM	O=C(O)CO[C@@H]1[C@@H](n2cc(-c3cc(F)c(F)c(F)c3)nn2)[C@@H](O)[C@@H](CO)O[C@H]1c1ncnn1-c1cccc(Cl)c1 [Example 53, 2-(((2S,3R,4S,5R,6R)-2-(1-(3-chlorophenyl)-1H-1,2,4-triazol-5-yl)-5-hydroxy-6-(hydroxymethyl)-4-(4-(3,4,5-trifluorophenyl)-1H-1,2,3-triazol-1-yl)tetrahydro-2H-pyran-3-yl)oxy)acetic acid]
83 nM	CO[C@@H]1[C@@H](n2cc(-c3cc(F)c(F)c(F)c3)nn2)[C@@H](O)[C@@H](CO)O[C@H]1c1ncnn1-c1cccc(Cl)c1 [Example 54]
157 nM	CCO[C@@H]1[C@@H](n2cc(-c3cc(F)c(F)c(F)c3)nn2)[C@@H](O)[C@@H](CO)O[C@H]1c1ncnn1-c1cccc(Cl)c1 [Example 55]
50 nM	Cc1nc([C@@H]2O[C@H](CO)[C@H](O)[C@H](n3cc(-c4cc(F)c(F)c(F)c4)nn3)[C@H]2O)n(-c2ccc3nc(C)sc3c2)n1 [Example 57, (2R,3R,4R,5R,6S)-2-(hydroxymethyl)-6-(3-methyl-1-(2-methylbenzo[d]thiazol-6-yl)-1H-1,2,4-triazol-5-yl)-4-(4-(3,4,5-trifluorophenyl)-1H-1,2,3-triazol-1-yl)tetrahydro-2H-pyran-3,5-diol]
140 nM	Cc1nc([C@@H]2O[C@H](CO)[C@H](O)[C@H](n3cc(-c4cc(F)c(F)c(F)c4)nn3)[C@H]2O)n(-c2ccc3ncn(C)c3c2)n1 [Example 59]
850 nM	Cc1nc([C@@H]2O[C@H](CO)[C@H](O)[C@H](n3cc(-c4cc(F)c(F)c(F)c4)nn3)[C@H]2O)n(-c2ccc(Cl)cc2C)n1 [Example 63]
90 nM	Cc1nc([C@@H]2O[C@H](CO)[C@H](O)[C@H](n3cc(-c4cc(F)c(F)c(F)c4)nn3)[C@H]2O)n(-c2cc(Cl)ccc2C#N)n1 [Example 64]
220 nM	Cc1nc([C@@H]2O[C@H](CO)[C@H](O)[C@H](n3cc(-c4cc(F)c(F)c(F)c4)nn3)[C@H]2O)n(-c2cncc(Cl)c2)n1 [Example 65]
3840 nM	Cc1nc([C@@H]2O[C@H](CO)[C@H](O)[C@H](n3cc(-c4cc(F)c(F)c(F)c4)nn3)[C@H]2O)n(-c2nc3ccnn3cc2F)n1 [Example 66]
130 nM	Cc1nc([C@@H]2O[C@H](CO)[C@H](O)[C@H](n3cc(-c4cc(F)c(F)c(F)c4)nn3)[C@H]2O)n(-c2cc(Cl)cc(C(F)(F)F)c2)n1 [Example 67]
60 nM	Cc1nc([C@@H]2O[C@H](CO)[C@H](O)[C@H](n3cc(-c4cc(F)c(F)c(F)c4)nn3)[C@H]2O)n(-c2cc(Cl)c(Cl)cc2C)n1 [Example 69]
50 nM	Cc1nc([C@@H]2O[C@H](CO)[C@H](O)[C@H](n3cc(-c4cc(F)c(F)c(F)c4)nn3)[C@H]2O)n(-c2cc(C(F)(F)F)ccc2Cl)n1 [Example 70]
90 nM	Cc1nc([C@@H]2O[C@H](CO)[C@H](O)[C@H](n3cc(-c4cc(F)c(F)c(F)c4)nn3)[C@H]2O)n(-c2cc(F)ccc2C(F)(F)F)n1 [Example 71]
20 nM	CCc1ccc(Cl)cc1-n1nc(C)nc1[C@@H]1O[C@H](CO)[C@H](O)[C@H](n2cc(-c3cc(F)c(F)c(F)c3)nn2)[C@H]1O [Example 72]
210 nM	OC[C@H]1O[C@@H](c2nncn2-c2ccccc2)[C@H](O)[C@@H](n2cc(-c3cc(F)c(F)c(F)c3)nn2)[C@H]1O [Example 73, (2R,3R,4R,5R,6S)-2-(hydroxymethyl)-6-(4-phenyl-4H-1,2,4-triazol-3-yl)-4-(4-(3,4,5-trifluorophenyl)-1H-1,2,3-triazol-1-yl)tetrahydro-2H-pyran-3,5-diol]
110 nM	COc1ccc(Cl)cc1-n1cnnc1[C@@H]1O[C@H](CO)[C@H](O)[C@H](n2cc(-c3cc(F)c(F)c(F)c3)nn2)[C@H]1O [Example 74]
330 nM	OC[C@H]1O[C@@H](c2nncn2-c2ccc(Cl)cc2)[C@H](O)[C@@H](n2cc(-c3cc(F)c(F)c(F)c3)nn2)[C@H]1O [Example 75]
120 nM	OC[C@H]1O[C@@H](c2nncn2-c2ccc3c(c2)OCO3)[C@H](O)[C@@H](n2cc(-c3cc(F)c(F)c(F)c3)nn2)[C@H]1O [Example 76]
140 nM	Cc1ccc(-n2cnnc2[C@@H]2O[C@H](CO)[C@H](O)[C@H](n3cc(-c4cc(F)c(F)c(F)c4)nn3)[C@H]2O)cc1C [Example 77]
830 nM	OC[C@H]1O[C@@H](c2nncn2-c2cccc(Oc3ccccc3)c2)[C@H](O)[C@@H](n2cc(-c3cc(F)c(F)c(F)c3)nn2)[C@H]1O [Example 78]
170 nM	COc1ccc(-n2cnnc2[C@@H]2O[C@H](CO)[C@H](O)[C@H](n3cc(-c4cc(F)c(F)c(F)c4)nn3)[C@H]2O)cc1OC [Example 79]
330 nM	OC[C@H]1O[C@@H](c2nncn2-c2cccc(C(F)(F)F)c2)[C@H](O)[C@@H](n2cc(-c3cc(F)c(F)c(F)c3)nn2)[C@H]1O [Example 80]
